# Read-outs that look alike come from different tables or passages of the source.
# Assays:
# Phaedon cochleariae = Phaedon cochleariae spray test; format: in vivo; details: for pest or weed control at 500 g/ha: Phaedon cochleariae, 168 h, read-out: efficacy in %
# Procedure: Phaedon cochleariae-Spray Test
# (§1) Solvent: 78.0 parts by weight of acetone
# (§2) • 1.5 parts by weight of dimethylformamide Emulsifier: alkylaryl polyglycol ether
# (§3) To produce a suitable preparation of active compound, 1 part by weight of active compound is dissolved using the stated parts by weight of solvent and made up with water containing an emulsifier concentration of 1000 ppm until the desired concentration is attained. To produce further test concentrations, the preparation is diluted with emulsifier-containing water.
# After 7 days, the efficacy in % is determined. 100% means that all the beetle larvae have been killed; 0% means that no beetle larvae have been killed.
# [1] = log P by HPLC on reversed-phase column (C18), EEC Directive 79/831 Annex V.A8
# From the text: Called log P (HCOOH) in the table.
# Called log P (neutral) in the table.
# Myzus persicae = Myzus persicae spray test (Chinese cabbage leaf discs); format: in vivo
# Procedure: Myzus persicae Spray Test
# Solvent: 78 parts by weight of acetone
# as §2, §3
# Discs of Chinese cabbage leaves (Brassica pekinensis) infested by all stages of the green peach aphid (Myzus persicae) are sprayed with an active compound preparation of the desired concentration.
# After 6 days, the efficacy in % is determined. 100% means that all the aphids have been killed; 0% means that no aphids have been killed.
# Spodoptera frugiperda = Spodoptera frugiperda spray test; format: in vivo; details: 500 g/ha, after 7 days, caterpillars killed
# Procedure: Spodoptera frugiperda-Spray Test Solvent: 78.0 parts by weight of acetone • • 1.5 parts by weight of dimethylformamide Emulsifier: alkylaryl polyglycol ether […] To produce further test concentrations, the preparation is diluted with emulsifier-containing water. Leaf disks of maize (Zea mays) are sprayed with an active compound preparation of the desired concentration and, after drying, populated with caterpillars of the armyworm (Spodoptera frugiperda).
# Tetranychus urticae = Tetranychus urticae spray test, OP-resistant; format: in vivo; details: after 6 days, spider mites killed
# Procedure: Tetranychus urticae-Spray Test, OP-Resistant
# as §1, §2, §3
# Discs of bean leaves (Phaseolus vulgaris) infested with all stages of the greenhouse red spider mite (Tetranychus urticae) are sprayed with an active compound preparation of the desired concentration.
# After 6 days, the efficacy in % is determined. 100% means that all the spider mites have been killed; 0% means that no spider mites have been killed.
# [2] = 500 g/ha, after 7 days, beetle larvae killed
# [3] = 500 g/ha, after 6 days, aphids killed
# [4] = reversed-phase HPLC column (C18), pH 2.7, logP-acidic, LC-MS acidic range, pH 2.7 (HCOOH), C18, 55° C.
# [5] = reversed-phase HPLC column (C18), pH 7.8, log P (neutral), preparation examples, neutral range, pH 7.8
# [6] = reversed-phase HPLC column (C18), pH 7.8, logP-neutral, LC-MS neutral range, pH 7.8, C18, 55° C.
# [7] = Myzus persicae, foliar, 144 h, 500 g/ha, after 6 days, aphids killed, read-out: efficacy in %
# [8] = LC-MS acidic range, pH 2.7 (HCOOH), C18, 55° C.
# [9] = LC-MS neutral range, pH 7.8, C18, 55° C.
Structure (SMILES),efficacy in % (Phaedon cochleariae; [2]),logP-acidic ([1]; pH 2.7),logP-neutral ([1]; pH 7.8),efficacy in % (Myzus persicae; [3]),also measured
CC[S+]([O-])c1ccc(NC(C)=O)nc1-c1nc2cc(C(F)(F)F)ncc2n1C (centres unmarked) [Example 9],83%,2.02,1.97,90%,
CCC(=O)Nc1ccc(S(=O)(=O)CC)c(-c2nc3cc(C(F)(F)F)ncc3n2C)n1 [Example 13],100%,2.33,2.28,90%,
"CCS(=O)(=O)c1ccc(NC(=O)C(C)C)nc1-c1nc2cc(C(F)(F)F)ncc2n1C [Example 16, N-{5-(Ethylsulphonyl)-6-[3-methyl-6-(trifluoromethyl)-3H-imidazo[4,5-c]pyridin-2-yl]pyridin-2-yl}-2-methylpropanamide]",,,,,"pest or weed control at 500 g/ha (Phaedon cochleariae; [2]): 100%; chromatographic logP [1, 4]: 2.63; chromatographic logP [1, 5]: 2.61; chromatographic logP [1, 6]: 2.61; pest or weed control at 500 g/ha (Myzus persicae; [7]): 100%"
CCS(=O)(=O)c1ccc(NC(=O)c2ccccc2)nc1-c1nc2cc(C(F)(F)F)ncc2n1C [Example 20],83%,2.98,,90%,
CCS(=O)(=O)c1ccc(NC(=O)COC)nc1-c1nc2cc(C(F)(F)F)ncc2n1C [Example 21],100%,2.22,2.17,90%,efficacy in % (Spodoptera frugiperda): 100%
CCS(=O)(=O)c1ccc(NC(=O)C(F)F)nc1-c1nc2cc(C(F)(F)F)ncc2n1C [Example 24],100%,2.34,2.22,100%,efficacy in % (Tetranychus urticae; 500 g/ha): 90%
"CCS(=O)(=O)c1ccc(C(=O)NC)nc1-c1nc2cc(C(F)(F)F)ncc2n1C [Example 31, 5-(Ethylsulphonyl)-N-methyl-6-[3-methyl-6-(trifluoromethyl)-3H-imidazo[4,5-c]pyridin-2-yl]pyridine-2-carboxamide]",,,,,"pest or weed control at 500 g/ha (Phaedon cochleariae; [2]): 100%; chromatographic logP [1, 4]: 2.01; chromatographic logP [1, 5]: 1.96; chromatographic logP [1, 6]: 1.96; pest or weed control at 500 g/ha (Myzus persicae; [7]): 100%; efficacy in % (Tetranychus urticae; 500 g/ha): 100%"
CCS(=O)(=O)c1ccc(C(=O)NC2CC2)nc1-c1nc2cc(C(F)(F)F)ncc2n1C [Example 33],,2.34,2.27,,"efficacy in % (Phaedon cochleariae; 100 g/ha, after 7 days, beetle larvae killed): 83%; efficacy in % (Tetranychus urticae; 500 g/ha): 90%"
"CCS(=O)(=O)c1ccc(C(=S)NC)nc1-c1nc2cc(C(F)(F)F)ncc2n1C [Example 34, 5-(Ethylsulphonyl)-N-methyl-6-[3-methyl-6-(trifluoromethyl)-3H-imidazo[4,5-c]pyridin-2-yl]pyridine-2-carbothioamide]",,,,,"chromatographic logP [1, 4]: 2.8; chromatographic logP [1, 5]: 2.76; chromatographic logP [1, 6]: 2.76; pest or weed control at 500 g/ha (Myzus persicae; [7]): 90%; efficacy in % (Tetranychus urticae; 500 g/ha): 100%"
CCS(=O)(=O)c1ccc(C(=S)NC2CC2)nc1-c1nc2cc(C(F)(F)F)ncc2n1C [Example 36],100%,3.17,3.14,90%,
"CC[S+]([O-])c1ccc(S(=O)(=O)CC)c(-c2nc3cc(C(F)(F)F)ncc3n2C)n1 (centres unmarked) [Example 37, 2-[6-(Ethylsulphinyl)-3-(ethylsulphonyl)pyridin-2-yl]-3-methyl-6-(trifluoromethyl)-3H-imidazo[4,5-c]pyridine]",,,,,"pest or weed control at 500 g/ha (Phaedon cochleariae; [2]): 100%; chromatographic logP [1, 4]: 2.03; chromatographic logP [1, 5]: 2.02; chromatographic logP [1, 6]: 2.02; pest or weed control at 500 g/ha (Myzus persicae; [7]): 90%"
CCS(=O)(=O)c1ccc(NC)nc1-c1nc2cc(C(F)(F)F)ncc2n1C [Example 38],100%,,,90%,"logP-acidic [1, 8]: 2.05; logP-neutral [1, 9]: 2.03"
"CCS(=O)(=O)c1ccc(/S(C)=N/C#N)nc1-c1nc2cc(C(F)(F)F)ncc2n1C (centres unmarked) [Example 43, [{5-(Ethylsulphonyl)-6-[3-methyl-6-(trifluoromethyl)-3H-imidazo[4,5-c]pyridin-2-yl]pyridin-2-yl}(methyl)-lambda4-sulphanylidene]cyanamide]",,,,,"pest or weed control at 500 g/ha (Phaedon cochleariae; [2]): 100%; chromatographic logP [1, 4]: 1.75; chromatographic logP [1, 5]: 1.75; chromatographic logP [1, 6]: 1.75; pest or weed control at 500 g/ha (Myzus persicae; [7]): 90%"
CCOCC(=O)Nc1ccc(S(=O)(=O)CC)c(-c2nc3cc(C(F)(F)F)ncc3n2C)n1 [Example 52],100%,2.64,2.51,100%,
CCS(=O)(=O)c1ccc(NC(=O)CSC)nc1-c1nc2cc(C(F)(F)F)ncc2n1C [Example 53],100%,2.51,2.38,90%,
CCS(=O)(=O)c1ccc(NN)nc1-c1nc2cc(C(F)(F)F)ncc2n1C [Example 55],100%,,,100%,"logP-acidic [1, 8]: 1.39"
CCS(=O)(=O)c1ccc(NC(=O)C(C)C[S+](C)[O-])nc1-c1nc2cc(C(F)(F)F)ncc2n1C (centres unmarked) [Example 57],100%,1.81,,90%,
CCS(=O)(=O)c1ccc(NS(=O)(=O)C(F)(F)F)nc1-c1nc2cc(C(F)(F)F)ncc2n1C [Example 58],,2.37,1.20,,efficacy in % (Tetranychus urticae; 500 g/ha): 90%
"CCS(=O)(=O)c1ccc(N(C)NC)nc1-c1nc2cc(C(F)(F)F)ncc2n1C [Example 60, 1-[5-Ethylsulphonyl-6-[3-methyl-6-(trifluoromethyl)imidazo[4,5-c]pyridin-2-yl]-2-pyridyl]-1,2-dimethylhydrazine]",,,,,"pest or weed control at 500 g/ha (Phaedon cochleariae; [2]): 100%; chromatographic logP ([1]; pH 2.7): 2.37; chromatographic logP ([1]; pH 7.8): 2.39; pest or weed control at 100 g/ha (Myzus persicae; Myzus persicae, foliar, 144 h, 100 g/ha, after 6 days, aphids killed, read-out: efficacy in %): 90%; efficacy in % (Tetranychus urticae; 100 g/ha): 90%"
CCS(=O)(=O)c1ccc(NC(=O)C(C)CS(C)(=O)=O)nc1-c1nc2cc(C(F)(F)F)ncc2n1C (centres unmarked) [Example 61],100%,2.02,,100%,
"CCS(=O)(=O)c1ccc(NC(C)=S)nc1-c1nc2cc(C(F)(F)F)ncc2n1C [Example 63, N-[5-Ethylsulphonyl-6-[3-methyl-6-(trifluoromethyl)imidazo[4,5-c]pyridin-2-yl]-2-pyridyl]thioacetamide]",,,,,"pest or weed control at 500 g/ha (Phaedon cochleariae): 100%; chromatographic logP ([1]; pH 2.7): 2.6; chromatographic logP ([1]; pH 7.8): 2.41; pest or weed control at 500 g/ha (Myzus persicae; Myzus persicae, foliar, 144 h, read-out: efficacy in %): 90%"
CCS(=O)(=O)c1ccc(N(C)C)nc1-c1nc2cc(C(F)(F)F)ncc2n1C [Example 64],100%,,,90%,"efficacy in % (Spodoptera frugiperda): 100%; logP-acidic [1, 8]: 2.55; logP-neutral [1, 9]: 2.49"
CCS(=O)(=O)c1ccc(NC(=O)c2cscn2)nc1-c1nc2cc(C(F)(F)F)ncc2n1C [Example 66],100%,2.60,2.58,,"efficacy in % (Myzus persicae; 100 g/ha, after 6 days, aphids killed): 90%"
CCS(=O)(=O)c1ccc(N)nc1-c1nc2cc(C(F)(F)C(F)(F)F)ncc2n1C [Example 67],100%,2.14,2.14,90%,efficacy in % (Spodoptera frugiperda): 100%; efficacy in % (Tetranychus urticae; 500 g/ha): 100%
CCS(=O)(=O)c1ccc(N(C)C(C)=O)nc1-c1nc2cc(C(F)(F)F)ncc2n1C [Example 69],100%,,,90%,"logP-acidic [1, 8]: 2.11; logP-neutral [1, 9]: 2.10"
CCS(=O)(=O)c1ccc(NC(=O)C[S+](C)[O-])nc1-c1nc2cc(C(F)(F)F)ncc2n1C (centres unmarked) [Example 70],100%,1.63,1.68,100%,
CCS(=O)(=O)c1ccc(NC(=O)CS(C)(=O)=O)nc1-c1nc2cc(C(F)(F)F)ncc2n1C [Example 72],100%,1.87,1.92,100%,
CCS(=O)(=O)c1ccc(N(C)N)nc1-c1nc2cc(C(F)(F)F)ncc2n1C [Example 74],100%,,,90%,"logP-acidic [1, 8]: 1.96; efficacy in % (Tetranychus urticae; 500 g/ha): 90%"

# From patent US10654845B2, “2-(het)aryl-substituted fused bicyclic heterocycle derivatives as pesticides” (BAYER CROPSCIENCE AKTIENGESELLSCHAFT, priority 2015, dated 2020)
